Results reported in PMC10818454, “The Development of an Oral Solution Containing Nirmatrelvir and Ritonavir and Assessment of Its Pharmacokinetics and Stability” (Pharmaceutics, 2024).
Converted amounts (≈) assume the structure as drawn. Like-named read-outs stand apart in the source and are kept apart here.

Assays:
[1] = set-up: method as in PMID 36015346; conditions: cited from earlier work
[2] = Recrystallization inhibition by surfactants (solvent shift supersaturation); assay type: physicochemical; conditions: 180 min
Experimental: The solvent shift method was used to create supersaturation. […] The solution was mixed at 50 r/min and 37 °C. A 3 mL sample of the solution was obtained at predetermined time intervals for measurement and supplemented with an equal volume of fresh medium. […] All tests were performed in triplicate.
Particle size measurements were performed at different time points using a Malvern Nano ZSP instrument (Malvern, UK). All tests were performed at 25 °C.

[3] = Solubility in aqueous solutions of different surfactants (0.2% m/v); conditions: vs no surfactant
[4] = Solubility in organic solvents; assay type: physicochemical; conditions: organic solvent or mixture
Experimental: The solubility of NRV in organic solvents, including ethanol, propylene glycol, and ethyl acetate, was tested.

[5] = cited from earlier work
[6] = Equilibrium solubility in water and buffers (saturated shake-flask, 37 °C, 24 h); assay type: physicochemical
Experimental: The solubility of active pharmaceutical ingredients (API) in water and buffers with various pH values (pH 1.2–pH 7.4) was investigated to guide formulation screening. The equilibrium solubility method was performed based on the saturated shake-flask solubility technique. An excess of each API was added into volumetric flasks containing the medium and placed in a thermostatic shaking chamber (HNY-2102C, Tianjin, China) for 24 h of continuous shaking (150 r/min) at 37 °C. The supernatant was filtered through a 0.45 μm PTFE filter membrane, and then an equal amount of methanol was added to prevent API precipitation. The concentrations were quantified using HPLC. Content analysis was performed using an HPLC system (Thermo Fisher Scientific, Waltham, MA, USA) using methanol:water (88:12, v/v) as the mobile phase. The injection volume of the filtered sample was 10 µL. Separation was performed using an Agilent C18 column (4.60 mm × 250 mm, 5 μm) with a mobile-phase flow rate of 1.0 mL/min. The detection wavelength was set at 203 nm.

SARS-CoV-2 Mpro = tested on: SARS-CoV-2 Mpro; set-up: method as in PMID 20937904; conditions: cited from earlier work

CC(C)(C)[C@H](NC(=O)C(F)(F)F)C(=O)N1C[C@H]2[C@@H]([C@H]1C(=O)N[C@H](C#N)C[C@@H]1CCNC1=O)C2(C)C [NRV, (1R,2S,5S)-N-((1S)-1-Cyano-2-((3S)-2-oxopyrrolidin-3-yl)ethyl)-3-((2S)-3,3-dimethyl-2-(2,2,2-trifluoroacetamido)butanoyl)-6,6-dimethyl-3-azabicyclo [3.1.0] hexane-2-carboxamide]
Stability under oxidative and photolytic conditions [1]: stable | Stability under strongly acidic and alkaline conditions [1]: hydrolytic | Change of concentration of supersaturated solution vs original concentration ([2]; aqueous surfactant solutions, 37 °C): no significant alteration | Change of solubility in the presence of poloxamer [3]: no significant change | Change of solubility in the presence of HCO and Tween ([3]; p < 0.05): increased | solubility ([4]; ethanol, read-out: Solubility in ethanol (crude concentration)): 16.5 to 33 mg/mL (≈ 33000 to 66100 µM) | solubility ([4]; ethyl acetate, read-out: Solubility in ethyl acetate (crude concentration)): > 57 mg/mL | solubility ([4]; propylene glycol, read-out: Solubility in propylene glycol (crude concentration)): < 1.6 mg/mL | BCS class [5]: II/IV | Logp (Table S1) ([5]; predictive, ref 1–3 (supplement)): 0.845 | BCS classification (Table S1) ([5]; ref 1–3 (supplement)): BCS II / IV | Solubility in words (Table S1) ([5]; ref 1–3 (supplement)): low solubility in water and buffered aqueous media | solubility at 24 h ([6]; aqueous buffer, thermodynamic from solid, pH 2.0, 37 °C, read-out: Solubility (concentration, mean ± SD)): 983.2 ± 5.4 µg/mL (≈ 1970 µM) | solubility at 24 h ([6]; aqueous buffer, thermodynamic from solid, pH 3.8, 37 °C, read-out: Solubility (concentration, mean ± SD)): 974.7 ± 4.8 µg/mL (≈ 1950 µM) | solubility at 24 h ([6]; aqueous buffer, thermodynamic from solid, pH 4.5, 37 °C, read-out: Solubility (concentration, mean ± SD)): 973.5 ± 5.3 µg/mL (≈ 1950 µM) | solubility at 24 h ([6]; aqueous buffer, thermodynamic from solid, pH 6.8, 37 °C, read-out: Solubility (concentration, mean ± SD)): 957.8 ± 7.5 µg/mL (≈ 1920 µM) | solubility at 24 h ([6]; aqueous buffer, thermodynamic from solid, pH 7.4, 37 °C, read-out: Solubility (concentration, mean ± SD)): 998.8 ± 6.2 µg/mL (≈ 2000 µM) | solubility at 24 h ([6]; buffers pH 1.2–8.0, read-out: Solubility in each buffer): 950 to 1000 µg/mL (≈ 1900 to 2000 µM) | solubility at 24 h ([6]; thermodynamic from solid, pH 1.2, 37 °C, read-out: Solubility (concentration, mean ± SD)): 997.7 ± 6.5 µg/mL (≈ 2000 µM) | solubility at 24 h ([6]; water, 37 °C, read-out: Solubility in water): 953.1 ± 7.6 µg/mL (≈ 1910 µM)

CC(C)c1nc(CN(C)C(=O)N[C@H](C(=O)N[C@@H](Cc2ccccc2)C[C@H](O)[C@H](Cc2ccccc2)NC(=O)OCc2cncs2)C(C)C)cs1 [RTV, 10-Hydroxy-2-methyl-5-(1-methylethyl)-1-[2-(1methylethyl)-4-thiazolyl]-3,6-dioxo-8,11-bis(phenylmethyl)-2,4,7,12-tetraazatridecan-13-oic acid, 5-thiazolylmethyl ester, [5S-(5R*,8R*,10R*,11R*)]]
Concentration of supersaturated solution during the experimental period ([2]; with HCO and Tween, p < 0.001 vs no surfactant): effectively sustained | BCS classification (Table S1) ([5]; ref 1–3 (supplement)): BCS II | Activity against SARS-CoV-2 Mpro (SARS-CoV-2 Mpro): inactive
